This note sets out measurements from PubChem BioAssay (NCI).

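Protocol summary: plate cells (96-well), add compound at 5 concentrations, incubate 48 h, interpolate endpoints linearly. Abbreviation: GI50, concentration required for 50% inhibition of growth. Definition used: TGI = concentration required for complete inhibition of growth.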

Test systems include HT29 colon; K-562 leukemia; OVCAR-8 ovarian; SF-295 CNS; SK-OV-3 ovarian; SN12C renal; SR leukemia; UACC-62 melanoma; MDA-MB-435; PC-3 prostate.
Common to all, as to assay: growth of human tumour cells (NCI), 48 h

For the compound `CCC/C(=N\NC(=O)c1cc2ccccc2cc1O)C(CC)C(=O)CCC(=O)N(Cc1ccccc1)Cc1ccccc1` (stereo not drawn), the TGI with HT29 colon was greater than 100 µM; with K-562 leukemia it was 69.9 µM; in the assay with OVCAR-8 ovarian, greater than 100 µM; in the assay on SF-295 CNS it was greater than 100 µM; in the assay with SK-OV-3 ovarian, greater than 100 µM; in the assay with SN12C renal, greater than 100 µM. Also, the TGI is greater than 100 µM in the assay with SR leukemia and 70 µM in the assay on UACC-62 melanoma.

For `CC/C=C\C/C=C\C[C@H]1C/C=C2/C(=O)C=C[C@H]2C/C=C\CCC(=O)O1`, the GI50 in the assay on HT29 colon was 2.55 µM; in the assay on K-562 leukemia it was 2.84 µM; in the assay on MDA-MB-435, 3.03 µM; in the assay on OVCAR-8 ovarian it was 4.73 µM; with PC-3 prostate, 3.39 µM; in the assay on SF-295 CNS, 3.01 µM. Also, the GI50 in the assay on SK-OV-3 ovarian was 10 µM; in the assay with SN12C renal, 3.46 µM; with UACC-62 melanoma it was 2.09 µM. Besides, the TGI in the assay on HT29 colon is 6.49 µM; in the assay with K-562 leukemia, greater than 14.3 µM; in the assay with MDA-MB-435 it was 8.91 µM; in the assay on OVCAR-8 ovarian, greater than 14.3 µM; in the assay on PC-3 prostate, 12.5 µM; with SF-295 CNS, 9.29 µM. For the same compound, the TGI with SK-OV-3 ovarian was greater than 14.3 µM; in the assay with SN12C renal, 8.77 µM; in the assay with UACC-62 melanoma, 5.47 µM.

`Cc1cccc(NC(=O)CC#N)c1Cl`: the TGI with HT29 colon, in the assay with K-562 leukemia, with SF-295 CNS, in the assay on SK-OV-3 ovarian, in the assay with SN12C renal and in the assay with SR leukemia was greater than 100 µM in each case. The TGI with UACC-62 melanoma was greater than 100 µM.

For `CC(=O)OCC1OC(Sc2ccccn2)C=CC1OC(C)=O` (stereo not drawn), the TGI with HT29 colon, in the assay with K-562 leukemia, with OVCAR-8 ovarian, in the assay with SF-295 CNS, in the assay on SK-OV-3 ovarian and with SN12C renal was greater than 100 µM in each case. Besides, the TGI in the assay on SR leukemia and in the assay with UACC-62 melanoma was greater than 100 µM each time.

As for `N#CC1=C(c2ccccc2)C(O)(c2ccccc2)NC1=O` (stereo not drawn), the TGI with HT29 colon was greater than 100 µM; in the assay with K-562 leukemia, greater than 100 µM; in the assay on OVCAR-8 ovarian, greater than 100 µM; in the assay with SF-295 CNS, greater than 100 µM; in the assay on SK-OV-3 ovarian, 88.9 µM; in the assay with SN12C renal, greater than 100 µM. For the same compound, the TGI with SR leukemia and in the assay with UACC-62 melanoma was greater than 100 µM each time.

`BrC12c3ccccc3Sc3ccccc3C1(Br)c1ccccc12` (stereo not drawn): the TGI is greater than 100 µM with HT29 colon; greater than 100 µM in the assay with K-562 leukemia; greater than 100 µM with OVCAR-8 ovarian; 61.4 µM in the assay with SF-295 CNS; greater than 100 µM in the assay with SK-OV-3 ovarian; 76.6 µM in the assay with SN12C renal. In addition, the TGI was determined as 41.4 µM in the assay on SR leukemia and 46.6 µM with UACC-62 melanoma.

On to `O=c1/c(=C/c2ccc3c(c2)OCO3)sc2nnc(-c3ccco3)n12`, for which the TGI in the assay on K-562 leukemia, in the assay on OVCAR-8 ovarian, with SF-295 CNS, in the assay on SK-OV-3 ovarian, with SN12C renal and with UACC-62 melanoma was greater than 100 µM throughout.

For the compound `COc1cc2c3c(n(CCCCl)c(=O)c2cc1OC)-c1ccc(C#N)cc1C3=O`, the GI50 in the assay on HT29 colon was greater than 100 µM; in the assay with K-562 leukemia, greater than 100 µM; in the assay with MDA-MB-435, greater than 100 µM; in the assay with OVCAR-8 ovarian it was 6.3 µM; in the assay with PC-3 prostate it was 32.4 µM; in the assay on SF-295 CNS, 5 µM. Besides, the GI50 is 15.2 µM in the assay on SK-OV-3 ovarian, 22.7 µM in the assay with SN12C renal and 6.81 µM in the assay with UACC-62 melanoma. Further, the TGI was greater than 100 µM with HT29 colon; greater than 100 µM in the assay with K-562 leukemia; greater than 100 µM in the assay with MDA-MB-435; 34.4 µM in the assay with OVCAR-8 ovarian; greater than 100 µM in the assay on PC-3 prostate; 18.8 µM in the assay with SF-295 CNS. The TGI with SK-OV-3 ovarian was 44 µM; in the assay on SN12C renal, greater than 100 µM; in the assay on UACC-62 melanoma it was 22.5 µM.

For the compound `COc1ccc(/C(C)=N/NC(N)=S)c(OC)c1`, the TGI with HT29 colon, with K-562 leukemia, with OVCAR-8 ovarian, with SF-295 CNS, in the assay on SK-OV-3 ovarian and in the assay with SN12C renal was greater than 100 µM in each case. For the same compound, the TGI in the assay on SR leukemia and with UACC-62 melanoma was greater than 100 µM each time.

For the compound `CC(Oc1ccc2cc(C(=O)c3ccccc3)c(=O)oc2c1)C(=O)O` (stereo not drawn), the TGI in the assay with HT29 colon, in the assay on K-562 leukemia, with OVCAR-8 ovarian, in the assay on SF-295 CNS, in the assay on SK-OV-3 ovarian and in the assay on SN12C renal was greater than 100 µM throughout. Besides, the TGI in the assay with SR leukemia and in the assay on UACC-62 melanoma was greater than 100 µM throughout.

`COc1ccc(C(=O)O)c(Cc2ccc3ccccc3c2)c1`: the TGI in the assay with HT29 colon, in the assay with K-562 leukemia, with OVCAR-8 ovarian, with SF-295 CNS, in the assay on SK-OV-3 ovarian and with SN12C renal was greater than 100 µM each time. For the same compound, the TGI in the assay on SR leukemia and in the assay with UACC-62 melanoma was greater than 100 µM each time.

On to `CC1=C(C(=O)Nc2ccccc2C)C(c2ccc(C3C(C(=O)Nc4ccccc4C)=CNC=C3C(=O)Nc3ccccc3C)cc2)C(C(=O)Nc2ccccc2C)=C(C)N1`, for which the TGI is 29.3 µM with HT29 colon; greater than 73.4 µM in the assay with K-562 leukemia; greater than 74.8 µM with OVCAR-8 ovarian; 37.7 µM in the assay with SF-295 CNS; greater than 58.2 µM in the assay with SK-OV-3 ovarian; 21.9 µM in the assay on SN12C renal. Further, the TGI was determined as 16.7 µM with SR leukemia and 31.9 µM in the assay with UACC-62 melanoma.

For the compound `c1ccc(C2N3CCCCC3[C@@H]3c4[nH]c5ccccc5c4CCN23)cc1` (stereo partly drawn), the TGI in the assay on HT29 colon is 33.5 µM; in the assay on K-562 leukemia, greater than 100 µM; in the assay with OVCAR-8 ovarian, greater than 100 µM; in the assay with SF-295 CNS, greater than 100 µM; in the assay with SK-OV-3 ovarian, greater than 100 µM; in the assay with SN12C renal it was greater than 100 µM. The TGI with UACC-62 melanoma was greater than 100 µM.

Regarding `Oc1cc2c(cc1O)-c1[nH]ncc1CC2`, the TGI with HT29 colon, in the assay on K-562 leukemia, with OVCAR-8 ovarian, with SF-295 CNS, with SK-OV-3 ovarian and in the assay on SN12C renal was greater than 100 µM throughout. Also, the TGI in the assay with SR leukemia is greater than 100 µM; in the assay with UACC-62 melanoma, 90.4 µM.
